# Experimental data: publication PMC6328587 (Nature Communications, 2019)
# Positions count from the first letter of the chain named. “Also recorded” adds a separate entry of the source.
# Key:
# wild-type p38δ = target: T1, wild-type p38δ (Homo sapiens, UniProt O15264); assay: Degradation of transfected wild-type p38δ in HeLa cells; assay type: cell-based; settings: 24 h
# T1 construct: expressed in transfected cells; host or cells: HeLa
# T1 sequence (O15264 1-365): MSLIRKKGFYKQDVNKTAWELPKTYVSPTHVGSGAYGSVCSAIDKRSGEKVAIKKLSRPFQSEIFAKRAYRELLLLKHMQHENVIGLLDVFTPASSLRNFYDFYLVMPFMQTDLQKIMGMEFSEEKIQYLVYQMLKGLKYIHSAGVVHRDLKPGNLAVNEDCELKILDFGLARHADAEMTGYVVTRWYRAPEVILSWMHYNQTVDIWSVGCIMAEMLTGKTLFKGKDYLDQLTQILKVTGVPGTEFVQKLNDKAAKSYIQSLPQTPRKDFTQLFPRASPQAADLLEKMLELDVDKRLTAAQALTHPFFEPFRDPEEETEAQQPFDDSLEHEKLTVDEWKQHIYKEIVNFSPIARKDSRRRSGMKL
# Experimental: (§1) Mutant p38δ was generated by QuikChange Lightning site-directed mutagenesis kit (Agilent). Transfections were carried out using Lipofectamine 2000 reagent (Invitrogen) in HeLa cells seeded at 3 × 10^5 cells per six well. One microgram of FLAG-containing pcDNA5-p38delta-WT or pcDNA5-p38delta-K220ET221E was used per transfection. Opti-MEM media were changed after 6 h to DMEM (1 × ), at which point the indicated compounds were added for 24 h before harvesting.
# [1] = target: T2, VHL:PROTAC:p38α ternary complex (Homo sapiens, UniProt P40337+Q16539); assay: AlphaLISA ternary complex assay; assay type: binding; settings: His-p38α and GST-VBC 150 nM, increasing PROTAC
# T2 construct: The plasmid contains an N-terminal His6 tag and encodes a region spanning amino acids 2–360 of the human p38α kinase; made in house; host or cells: E. coli BL21-CodonPlus(DE3)-RIPL (p38α); E. coli BL21(DE3) (GST-VBC)
# Experimental: Assays were performed at room temperature and plates sealed with transparent film between addition of reagents to prevent well contamination. All reagents were diluted in 50 mM HEPES pH 7.5, 50 mM NaCl, 69 µM Brij-35, and 0.1 mg mL^−1 BSA. Recombinant GST-VBC was mixed with His6-p38α and PROTAC (diluted one-in-three from 6× stock) to a final volume of 15 μL per well in a OptiPlate-384 well microplate (PerkinElmer) and incubated for 30 min. VBC and p38α were kept at a constant final concentration of 150 nM. In all, 7.5 μL of Anti-6xHis AlphaLISA Acceptor beads (PerkinElmer) were added to each well and plates were incubated for 15 min in the dark. In total, 7.5 μL of Alpha Glutathione Donor beads (PerkinElmer) were added to each well and plates were incubated for 45 min in the dark. Plates were read on a Synergy 2 microplate reader using the Gen5 imager software (BioTek Instruments) with an excitation wavelength of 680 nm and emission wavelength of 615 nm. Intensity values were plotted in Graphpad Prism with PROTAC concentration values represented on a log10 scale.
# ERK2 = target: T3, ERK2 (Homo sapiens, UniProt P28482); assay: ERK2 degradation, western blot in MDA-MB-231 cells; assay type: cell-based; settings: 0.025-2.5 µM
# T3 construct: endogenous in cells; host or cells: MDA-MB-231
# Experimental: […] once with ice-cold PBS (1 × ), followed by lysis in buffer containing 25 mM Tris [pH 7.5], 0.25% sodium deoxycholate, 1% Triton X-100, supplemented with 1X protease inhibitor cocktail (Roche), and phosphatase inhibitors (10 mM NaF, 1 mM Na3VO4, and 20 mM β-glycerophosphate), unless otherwise noted. Lysates were spun at 14,000 × g for 10 min at 4 °C and supernatant was evaluated for protein content using a Pierce BCA Protein Assay (ThermoFisher Scientific). In all experiments, 25–50 μg of protein was loaded onto 10% SDS-PAGE gels or 4–20% Criterion TGX precast gradient gels (Bio-Rad), transferred to nitrocellulose membranes, and probed with the specified antibodies overnight at 4 °C in 1X TBS-Tween (Tris-buffered saline plus 0.02% Tween 20) containing 5% non-fat milk. Immunoblots were visualized using a Bio-Rad ChemiDoc imaging instrument and subsequently processed and quantified using the accompanying Bio-Rad ImageLab software. See Supplementary Figure 8 for uncropped scans of western blots shown in the main text figures.
# Supplementary Figure 4 cont.
# Supplementary Figure 4. Characterization of M APK fam ily degradation selectivity (related to Figures 1-2). (a) p38 M APK fam ily m em bers (α, β, δ, γ) were aligned using the T-Coffee multiple sequence alignm ent server. […] Note: JNK1 and JNK2 are expressed as two alternatively-spliced form s. […]
# [2] = target: T4, mutant (K220E/T221E) p38δ (Homo sapiens, UniProt O15264, K220E/T221E); assay: Degradation of transfected mutant p38δ in HeLa cells; assay type: cell-based; settings: 24 h
# T4 construct: expressed in transfected cells; host or cells: HeLa cells, Lipofectamine 2000, pcDNA5-p38delta-K220ET221E
# T4 sequence (O15264 1-365 K220E/T221E): T1 sequence (O15264 1-365) with K220E, T221E
# Experimental: as §1
# T3 sequence (P28482 whole entry): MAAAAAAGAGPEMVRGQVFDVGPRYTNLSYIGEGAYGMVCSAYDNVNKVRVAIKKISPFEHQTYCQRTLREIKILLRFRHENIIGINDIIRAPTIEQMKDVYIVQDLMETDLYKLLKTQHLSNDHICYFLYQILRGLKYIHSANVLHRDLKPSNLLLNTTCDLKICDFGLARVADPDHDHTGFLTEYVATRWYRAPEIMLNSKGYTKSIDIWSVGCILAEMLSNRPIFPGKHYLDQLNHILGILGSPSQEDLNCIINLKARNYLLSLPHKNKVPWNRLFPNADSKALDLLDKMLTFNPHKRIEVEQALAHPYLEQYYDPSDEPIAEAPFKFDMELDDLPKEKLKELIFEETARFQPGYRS
# T2 sequence (Q16539 2-360 limits assumed): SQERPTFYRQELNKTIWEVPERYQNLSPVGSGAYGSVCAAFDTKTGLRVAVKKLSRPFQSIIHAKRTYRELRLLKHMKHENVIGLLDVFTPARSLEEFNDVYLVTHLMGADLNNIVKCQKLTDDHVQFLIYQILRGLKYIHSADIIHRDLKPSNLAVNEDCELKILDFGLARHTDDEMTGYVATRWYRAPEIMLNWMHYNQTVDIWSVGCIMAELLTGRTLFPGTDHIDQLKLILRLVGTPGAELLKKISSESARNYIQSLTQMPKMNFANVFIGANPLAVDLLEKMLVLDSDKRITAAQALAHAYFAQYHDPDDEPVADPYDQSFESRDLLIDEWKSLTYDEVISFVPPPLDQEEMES
# T2 sequence (P40337 whole entry, the tested form may be a part): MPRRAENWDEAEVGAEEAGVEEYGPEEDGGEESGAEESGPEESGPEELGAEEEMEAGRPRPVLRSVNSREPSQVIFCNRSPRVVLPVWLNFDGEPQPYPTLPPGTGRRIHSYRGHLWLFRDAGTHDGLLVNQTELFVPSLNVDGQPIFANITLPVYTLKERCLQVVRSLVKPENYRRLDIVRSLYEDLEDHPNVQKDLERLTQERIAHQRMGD
# T2 sequence (Q15370 whole entry partner, the tested form may be a part): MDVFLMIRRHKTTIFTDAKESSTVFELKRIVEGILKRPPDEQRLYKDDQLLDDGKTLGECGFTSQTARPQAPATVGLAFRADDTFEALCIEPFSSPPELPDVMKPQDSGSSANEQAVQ
# T2 sequence (Q15369 whole entry partner, the tested form may be a part): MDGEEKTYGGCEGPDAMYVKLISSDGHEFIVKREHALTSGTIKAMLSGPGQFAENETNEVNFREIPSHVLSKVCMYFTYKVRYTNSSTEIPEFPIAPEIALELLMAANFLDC
Structure (SMILES),degradation of wild-type p38δ (wild-type p38δ),p38α:PROTAC:VHL ternary complex formation (AlphaLISA) [1],ERK2 degradation (ERK2),degradation of double-mutant (K220E/T221E) p38δ [2]
COc1cc2c(Oc3ccc(NC(=O)C4(C(=O)Nc5ccc(F)cc5)CC4)cc3F)ccnc2cc1OCCOCCOCCOc1cc(-c2scnc2C)ccc1CNC(=O)[C@@H]1C[C@@H](O)CN1C(=O)[C@H](C(C)C)N1Cc2ccccc2C1=O [SJFδ],able to eliminate wild-type p38δ,no such ternary species is detectable,neither PROTAC degrades,able to degrade
COc1cc2c(Oc3ccc(NC(=O)C4(C(=O)Nc5ccc(F)cc5)CC4)cc3F)ccnc2cc1OCCCCOCCCCOCC(=O)N[C@H](C(=O)N1C[C@H](O)C[C@H]1C(=O)NCc1ccc(-c2scnc2C)cc1)C(C)(C)C [SJFα],not wild-type p38δ,facilitates a VHL:PROTAC:p38α ternary complex,neither PROTAC degrades,able to degrade; also recorded: potently degrades
